According to US5604234A, “Substituted thiol macrolactam immunomodulators” (Abbott Laboratories, priority 1995, dated 1997):
pIC50: −log10 of the molar value.

system: human mixed lymphocyte reaction (MLR); test: human mixed lymphocyte reaction (MLR), serum free variation; type: cell-based; settings: Homo sapiens, Lymphocyte, serum-free medium AIM V, Table 3
Experimental: In vitro Assay of Biological Activity (Serum Free MLR)
The in viitro immunosuppressant activity of the compounds of the present invention can also be determined using a variation of the human mixed lymphocyte reaction (MLR) assay described by Kino, T. et al. in Transplantation Proceedings, XIX(5):36-39, Suppl. 6 (1987). In this assay, the cell culture was performed in a serum-free medium, AIM V (GibcoBRL Life Technologies, Grand Island, N.Y.), instead of the usual RPMI 1640 plus 10% heat-inactivated fetal bovine serum medium. The final cell concentrations of the responder and stimulator peripheral blood mononuclear cells were, respectively, 5×10^5/mL and 2×10^6/mL of cells pooled from four donors.

Point of comparison: CCC1C=C(C)CC(C)CC(OC)C2OC(O)(C(=O)C(=O)N3CCCCC3C(=O)OC(C(C)=CC3CCC(SCCC(=O)OC4CCCCC4)C(OC)C3)C(C)C(O)CC1=O)C(C)CC2OC (centres unmarked) [Example 14], pIC50 8.21. Against it:
- CCNC(=O)S[C@H]1CC[C@@H](/C=C(\C)[C@H]2OC(=O)[C@@H]3CCCCN3C(=O)C(=O)[C@]3(O)O[C@H]([C@@H](OC)C[C@@H](C)C/C(C)=C/[C@@H](CC)C(=O)C[C@H](O)[C@H]2C)[C@@H](OC)C[C@H]3C)C[C@H]1OC [Example 91] — 1.84 log units higher, 10.05
- CCC1C=C(C)CC(C)CC(OC)C2OC(O)(C(=O)C(=O)N3CCCCC3C(=O)OC(C(C)=CC3CCC(SCC(=O)OCCOCc4ccccc4)C(OC)C3)C(C)C(O)CC1=O)C(C)CC2OC (centres unmarked) [Example 37] — 0.42 log units lower, 7.79
- CC[C@@H]1/C=C(\C)C[C@H](C)C[C@H](OC)[C@H]2O[C@@](O)(C(=O)C(=O)N3CCCC[C@H]3C(=O)O[C@H](/C(C)=C/[C@@H]3CC[C@H](SCC(C)=O)[C@H](OC)C3)[C@H](C)[C@@H](O)CC1=O)[C@H](C)C[C@@H]2OC [Example 80] — within 0.2 log units, 8.37
- CC[C@@H]1/C=C(\C)C[C@H](C)C[C@H](OC)[C@H]2O[C@@](O)(C(=O)C(=O)N3CCCC[C@H]3C(=O)O[C@H](/C(C)=C/[C@@H]3CC[C@H](SC(=O)NCC(=O)OCc4ccc(OC)cc4)[C@H](OC)C3)[C@H](C)[C@@H](O)CC1=O)[C@H](C)C[C@@H]2OC [Example 99] — within 0.2 log units, 8.06
- CCC1C=C(C)CC(C)CC(OC)C2OC(O)(C(=O)C(=O)N3CCCCC3C(=O)OC(C(C)=CC3CCC(SCC(=O)O)C(OC)C3)C(C)C(O)CC1=O)C(C)CC2OC (centres unmarked) [Example 30] — within 0.2 log units, 8.04
- CCC1C=C(C)CC(C)CC(OC)C2OC(O)(C(=O)C(=O)N3CCCCC3C(=O)OC(C(C)=CC3CCC(SCCC(N)=O)C(OC)C3)C(C)C(O)CC1=O)C(C)CC2OC (centres unmarked) [Example 22] — 2.49 log units higher, 10.70
- CC[C@@H]1/C=C(\C)C[C@H](C)C[C@H](OC)[C@H]2O[C@@](O)(C(=O)C(=O)N3CCCC[C@H]3C(=O)O[C@H](/C(C)=C/[C@@H]3CC[C@H](SC(=O)NCC(=O)N4CCOCC4)[C@H](OC)C3)[C@H](C)[C@@H](O)CC1=O)[C@H](C)C[C@@H]2OC [Example 101] — 0.75 log units higher, 8.96
- CC[C@@H]1/C=C(\C)C[C@H](C)C[C@H](OC)[C@H]2O[C@@](O)(C(=O)C(=O)N3CCCC[C@H]3C(=O)O[C@H](/C(C)=C/[C@@H]3CC[C@H](S(=O)(=O)CCCO)[C@H](OC)C3)[C@H](C)[C@@H](O)CC1=O)[C@H](C)C[C@@H]2OC [Example 53] — 2.19 log units higher, 10.40
- CC[C@@H]1/C=C(\C)C[C@H](C)C[C@H](OC)[C@H]2O[C@@](O)(C(=O)C(=O)N3CCCC[C@H]3C(=O)O[C@H](/C(C)=C/[C@@H]3CC[C@H](SCC(C)C(=O)O)[C@H](OC)C3)[C@H](C)[C@@H](O)CC1=O)[C@H](C)C[C@@H]2OC (some centres unmarked) [Example 43] — 0.56 log units lower, 7.65
- CCOC(=O)CNC(=O)S[C@H]1CC[C@@H](/C=C(\C)[C@H]2OC(=O)[C@@H]3CCCCN3C(=O)C(=O)[C@]3(O)O[C@H]([C@@H](OC)C[C@@H](C)C/C(C)=C/[C@@H](CC)C(=O)C[C@H](O)[C@H]2C)[C@@H](OC)C[C@H]3C)C[C@H]1OC [Example 95] — 0.25 log units lower, 7.96
- CC[C@@H]1/C=C(\C)C[C@H](C)C[C@H](OC)[C@H]2O[C@@](O)(C(=O)C(=O)N3CCCC[C@H]3C(=O)O[C@H](/C(C)=C/[C@@H]3CC[C@H](SC(=O)Nc4ccccc4)[C@H](OC)C3)[C@H](C)[C@@H](O)CC1=O)[C@H](C)C[C@@H]2OC [Example 94] — 0.51 log units higher, 8.72
- CCC1C=C(C)CC(C)CC(OC)C2OC(O)(C(=O)C(=O)N3CCCCC3C(=O)OC(C(C)=CC3CCC(SCC(=O)OCC(F)(F)F)C(OC)C3)C(C)C(O)CC1=O)C(C)CC2OC (centres unmarked) [Example 33] — 0.88 log units lower, 7.33
- CCC1C=C(C)CC(C)CC(OC)C2OC(O)(C(=O)C(=O)N3CCCCC3C(=O)OC(C(C)=CC3CCC(SCCC(=O)OC)C(OC)C3)C(C)C(O)CC1=O)C(C)CC2OC (centres unmarked) [Example 9] — within 0.2 log units, 8.05
- CC[C@@H]1/C=C(\C)C[C@H](C)C[C@H](OC)[C@H]2O[C@@](O)(C(=O)C(=O)N3CCCC[C@H]3C(=O)O[C@H](/C(C)=C/[C@@H]3CC[C@H](SC(=O)CO)[C@H](OC)C3)[C@H](C)[C@@H](O)CC1=O)[C@H](C)C[C@@H]2OC [Example 125] — 0.25 log units higher, 8.46
- CCC1C=C(C)CC(C)CC(OC)C2OC(O)(C(=O)C(=O)N3CCCCC3C(=O)OC(C(C)=CC3CCC(SCCC(=O)OC(C)(C)C)C(OC)C3)C(C)C(O)CC1=O)C(C)CC2OC (centres unmarked) [Example 15] — 0.61 log units higher, 8.82
- CCC1C=C(C)CC(C)CC(OC)C2OC(O)(C(=O)C(=O)N3CCCCC3C(=O)OC(C(C)=CC3CCC(SC(C)=O)C(OC)C3)C(C)C(O)CC1=O)C(C)CC2OC (centres unmarked) [Example 2] — 1.59 log units higher, 9.80
- CC[C@@H]1/C=C(\C)C[C@H](C)C[C@H](OC)[C@H]2O[C@@](O)(C(=O)C(=O)N3CCCC[C@H]3C(=O)O[C@H](/C(C)=C/[C@@H]3CC[C@H](SC(=O)c4ccccc4C#N)[C@H](OC)C3)[C@H](C)[C@@H](O)CC1=O)[C@H](C)C[C@@H]2OC [Example 119] — 0.31 log units higher, 8.52
- CC[C@@H]1/C=C(\C)C[C@H](C)C[C@H](OC)[C@H]2O[C@@](O)(C(=O)C(=O)N3CCCC[C@H]3C(=O)O[C@H](/C(C)=C/[C@@H]3CC[C@H](SC(=O)NCC(=O)N4CCCCC4)[C@H](OC)C3)[C@H](C)[C@@H](O)CC1=O)[C@H](C)C[C@@H]2OC [Example 102] — 0.49 log units higher, 8.70
- CCC1C=C(C)CC(C)CC(OC)C2OC(O)(C(=O)C(=O)N3CCCCC3C(=O)OC(C(C)=CC3CCC(SCC(=O)OC)C(OC)C3)C(C)C(O)CC1=O)C(C)CC2OC (centres unmarked) [Example 28] — 0.59 log units higher, 8.80
- CCC1C=C(C)CC(C)CC(OC)C2OC(O)(C(=O)C(=O)N3CCCCC3C(=O)OC(C(C)=CC3CCC(SCCC(=O)OCCO)C(OC)C3)C(C)C(O)CC1=O)C(C)CC2OC (centres unmarked) [Example 13] — 0.30 log units higher, 8.51
- CC[C@@H]1/C=C(\C)C[C@H](C)C[C@H](OC)[C@H]2O[C@@](O)(C(=O)C(=O)N3CCCC[C@H]3C(=O)O[C@H](/C(C)=C/[C@@H]3CC[C@H](SC(=O)C(C)C)[C@H](OC)C3)[C@H](C)[C@@H](O)CC1=O)[C@H](C)C[C@@H]2OC [Example 86] — 0.56 log units higher, 8.77
- CC[C@@H]1/C=C(\C)C[C@H](C)C[C@H](OC)[C@H]2O[C@@](O)(C(=O)C(=O)N3CCCC[C@H]3C(=O)O[C@H](/C(C)=C/[C@@H]3CC[C@H](S(=O)(=O)CCC(=O)O)[C@H](OC)C3)[C@H](C)[C@@H](O)CC1=O)[C@H](C)C[C@@H]2OC [Example 78] — 0.69 log units lower, 7.52
- CC[C@@H]1/C=C(\C)C[C@H](C)C[C@H](OC)[C@H]2O[C@@](O)(C(=O)C(=O)N3CCCC[C@H]3C(=O)O[C@H](/C(C)=C/[C@@H]3CC[C@H](SC(=O)N4CCOCC4)[C@H](OC)C3)[C@H](C)[C@@H](O)CC1=O)[C@H](C)C[C@@H]2OC [Example 98] — 1.49 log units higher, 9.70
- CC[C@@H]1/C=C(\C)C[C@H](C)C[C@H](OC)[C@H]2O[C@@](O)(C(=O)C(=O)N3CCCC[C@H]3C(=O)O[C@H](/C(C)=C/[C@@H]3CC[C@H](SC(=O)NC(C)C)[C@H](OC)C3)[C@H](C)[C@@H](O)CC1=O)[C@H](C)C[C@@H]2OC [Example 93] — 1.31 log units higher, 9.52
- CC[C@@H]1/C=C(\C)C[C@H](C)C[C@H](OC)[C@H]2O[C@@](O)(C(=O)C(=O)N3CCCC[C@H]3C(=O)O[C@H](/C(C)=C/[C@@H]3CC[C@H](SC(=O)c4cccnc4)[C@H](OC)C3)[C@H](C)[C@@H](O)CC1=O)[C@H](C)C[C@@H]2OC [Example 113] — 1.61 log units higher, 9.82
- CC[C@@H]1/C=C(\C)C[C@H](C)C[C@H](OC)[C@H]2O[C@@](O)(C(=O)C(=O)N3CCCC[C@H]3C(=O)O[C@H](/C(C)=C/[C@@H]3CC[C@H]([S+]([O-])CC(=O)OCc4ccccc4)[C@H](OC)C3)[C@H](C)[C@@H](O)CC1=O)[C@H](C)C[C@@H]2OC (single isomer, unassigned) [Example 54] — within 0.2 log units, 8.06
- CC[C@@H]1/C=C(\C)C[C@H](C)C[C@H](OC)[C@H]2O[C@@](O)(C(=O)C(=O)N3CCCC[C@H]3C(=O)O[C@H](/C(C)=C/[C@@H]3CC[C@H](SCC(C)=NOC)[C@H](OC)C3)[C@H](C)[C@@H](O)CC1=O)[C@H](C)C[C@@H]2OC [Example 82] — 1.02 log units lower, 7.19
- CCOC(=O)C(C)CSC1CCC(C=C(C)C2OC(=O)C3CCCCN3C(=O)C(=O)C3(O)OC(C(OC)CC(C)CC(C)=CC(CC)C(=O)CC(O)C2C)C(OC)CC3C)CC1OC (centres unmarked) [Example 41] — 0.88 log units lower, 7.33
- CCC1C=C(C)CC(C)CC(OC)C2OC(O)(C(=O)C(=O)N3CCCCC3C(=O)OC(C(C)=CC3CCC(SCC(=O)NO)C(OC)C3)C(C)C(O)CC1=O)C(C)CC2OC (centres unmarked) [Example 38] — within 0.2 log units, 8.12
- CC[C@@H]1/C=C(\C)C[C@H](C)C[C@H](OC)[C@H]2O[C@@](O)(C(=O)C(=O)N3CCCC[C@H]3C(=O)O[C@H](/C(C)=C/[C@@H]3CC[C@H](SC(=O)C(C)(C)C)[C@H](OC)C3)[C@H](C)[C@@H](O)CC1=O)[C@H](C)C[C@@H]2OC [Example 85] — 1.11 log units higher, 9.32
- CCOC(=O)CCS(=O)(=O)[C@H]1CC[C@@H](/C=C(\C)[C@H]2OC(=O)[C@@H]3CCCCN3C(=O)C(=O)[C@]3(O)O[C@H]([C@@H](OC)C[C@@H](C)C/C(C)=C/[C@@H](CC)C(=O)C[C@H](O)[C@H]2C)[C@@H](OC)C[C@H]3C)C[C@H]1OC [Example 61] — 0.39 log units higher, 8.60
- CCC1C=C(C)CC(C)CC(OC)C2OC(O)(C(=O)C(=O)N3CCCCC3C(=O)OC(C(C)=CC3CCC(SCCC(=O)OCC(F)(F)F)C(OC)C3)C(C)C(O)CC1=O)C(C)CC2OC (centres unmarked) [Example 12] — 0.56 log units higher, 8.77
- CC[C@@H]1/C=C(\C)C[C@H](C)C[C@H](OC)[C@H]2O[C@@](O)(C(=O)C(=O)N3CCCC[C@H]3C(=O)O[C@H](/C(C)=C/[C@@H]3CC[C@H]([S+]([O-])CCCO)[C@H](OC)C3)[C@H](C)[C@@H](O)CC1=O)[C@H](C)C[C@@H]2OC (some centres unmarked) [Example 52] — 0.53 log units higher, 8.74

same assay, conditions: serum-free medium AIM V, Table 3

CC[C@@H]1/C=C(\C)C[C@H](C)C[C@H](OC)[C@H]2O[C@@](O)(C(=O)C(=O)N3CCCC[C@H]3C(=O)O[C@H](/C(C)=C/[C@@H]3CC[C@H](SCC(C)=NNC(N)=O)[C@H](OC)C3)[C@H](C)[C@@H](O)CC1=O)[C@H](C)C[C@@H]2OC [Example 81B] was tested, and the pIC50 was 8.80.
